Entries after “also recorded” stand apart in the source; their conditions may differ.
What was measured:
Ret melanoma cells = test: Tumor growth and initiation in vivo, Ret; parameters: species or system mice
From the text: B16-F10 (A) or Ret (B) cells were co-injected with Matrigel into syngeneic mice. […] Numbers indicate the number of animals with a tumor in each group. Bar graphs show the mean tumor volume in each group at the day when the first animal had reached the legal tumor size limit. Kaplan-Meier curves show the percentage of tumor-free animals in percent as a measure for tumor initiation.
Cells were harvested using trypsin/EDTA and washed in PBS. The indicated numbers of living melanoma cells were subcutaneously injected into the flank of syngeneic mice in 100 μl PBS. For co-injection experiments, the indicated number of living cells was resuspended in 100 μl Matrigel HC (10 mg/ml, #354262, Corning Inc.), and subcutaneously injected into the flank. Tumor volume was calculated using the formula 4/3π (d1/2×d2/2×d3/2), where d1−d3 represents the diameter of the tumor in three dimensions. […] All animal experiments were approved by the local authorities, and performed according to the German legal requirements. Tumor initiating cell (TIC) frequency and p-values were calculated using ELDA software.
To investigate the anti-tumor properties of the selected Id1/Id3-inhibiting compounds, groups of experimental mice (8 per group) were injected subcutaneously with B16-F10 or Ret melanoma cells. […] Melanoma initiation and growth was assessed over a period of 90 days.

B16-F10 and Ret cells [1] = test: Proliferation of melanoma cells in 2D culture; type: cell-based, murine
Id3 = test: Compound screen: BMP4-induced Id3 expression, Western blot; type: cell-based, murine; conditions: B16-F10 and Ret cells, BMP4 10 ng/ml and compound simultaneously, 24 h, rated relative to CBD
Description: To screen compounds with an inhibitory effect on Id1 and Id3 expression, cells were simultaneously stimulated with BMP4 (10 ng/ml, 315-27, Peprotech) and substances at the indicated concentrations for 24 h. DMSO served as a solvent control. Effects on Id1 and Id3 expression levels were analysed by Western blotting.
Western blot analysis was performed using standard methods. The following antibodies were used for protein detection: Id1 (195-14, CalBioreagents), Id3 (17-3, CalBioreagents), β-actin (AC-15, Sigma Aldrich), Vinculin (VIN-11-5, Sigma Aldrich). Protein bands were detected using HRP conjugated secondary antibodies (P0447, P0448, Agilent Technologies) and enhanced chemiluminescence (32106, Thermo Fisher Scientific).
B16-F10 and Ret melanoma cells were treated with BMP4 to induce Id1 and Id3 expression, and simultaneously treated with each of the compounds individually for a 24 h period.

HUVEC spheroids = test: Sprouting from HUVEC spheroids in collagen; type: cell-based, Human; conditions: X6632 10 μM; 50 ng/ml hVEGF-A; 24 h; collagen type I
Description: (§1) HUVECs or LECs were resuspended in endothelial cell growth medium containing 20% methylcellulose at 1.6×10^4 cells per millilitre. Twenty-five microliters of cell suspension were pipetted as drops on non-adherent plastic plates, which were then inverted to form hanging drop cultures. Plates were incubated for 24 h at 37° C. Spheroids were harvested, then embedded in collagen type I (2 mg/ml) containing 0.5% methylcellulose. After polymerization, gels were cultivated with endothelial cell growth medium containing 50 ng/ml hVEGF-A in the presence or absence of X6632 (10 μM), or DMSO as a solvent control. Sprouting was assessed after cultivation for 24 h using microscope-based image acquisition. Representative images are shown.
(§2) To determine whether this is the case, the impact of […] on angiogenic and lymphangiogenic sprouting from endothelial cell spheriods was investigated. To this end, HUVECs and LECs were grown as spheriods in hanging drop cultures. The spheroids were then embedded in collagen. Sprouting from the spheroids in the presence and absence of X6632 was monitored using microscope-based image analysis.

B16-F10 and Ret cells [2] = test: 3D Matrigel assay; type: cell-based, murine; conditions: daily application in 3D Matrigel
Description: X8166 inhibits melanoma cell growth in 3D Matrigel. B16-F10 (A) or Ret (B) control or CRISPR/Cas9 Id1/Id3 cells were seeded in 3D Matrigel (10 mg/ml) and grown for six days before analysis. B16-F10 or Ret cells were treated daily with DMSO or X8166 (7.5 μM). The number of colonies at six positions of each well of a 48-well plate were counted in each z-level (5-10 z-levels were imaged per position).
Cells (2×10^3) were mixed with Matrigel to obtain 150 μl of a cell/Matrigel (10 mg/ml, #354262, Corning Inc.) solution, which was seeded into a well of a 48-well plate. The gel was allowed to solidify at 37° C. for 30 min and was subsequently overlaid with 500 μl complete growth medium. After six days of culture, images were captured using a Leica DMI6000 B microscope at six different x/y positions in every well, and a minimum of five horizontal layers (z levels) at each position, in order to get every cell in focus for image analysis. Image analysis was performed using Fiji software as follows: First, images were transformed into 8-bit files (pixel values from 0 (black) to 255 (white)). The scale was set to distance=0, known=0, pixel=1, and unit=pixel global. Outlines of each colony in focus in every image were detected using the integrated semi-automatic magic wand tool. Once outlines were matching the morphology of the colony were obtained, the colony was filled white (pixel value 255) using the fill function. Thresholding of pixel values (threshold=255) allowed black (background) and white (colonies) images of the filled colonies to be obtained. The “Analyze particles” function was applied to measure the area and perimeter of colonies with a minimum pixel size of 1500. An invasive index was calculated as follows: Invasive index=(perimeter)^2/area, resulting in a unitless measure of invasiveness.

LEC spheroids = test: Sprouting from LEC spheroids in collagen; type: cell-based; conditions: X6632 10 μM; 50 ng/ml hVEGF-A; 24 h; collagen type I
Description: as §1, §2

CCCCc1cc2c(O)cc(C3(CCCC)CCCCC3)cc2oc1=O [X6632, 7-(1-Butylcyclohexyl)-5-hydroxy-3-butyl-2H-chromen-2-one]
Melanoma growth and initiation (Ret melanoma cells; Ret cells co-injected with Matrigel, syngeneic mice, daily i.p. first 14 days, compared to DMSO): significantly inhibit; also recorded: potent inhibitors | Number of mice that did not develop any tumors (Ret melanoma cells; Ret cells, 8 mice per group, assessed over 90 days): 1 mice | Tumor growth and initiation compared to CBD (Ret melanoma cells; Ret experiment, daily i.p. first 14 days): trend towards reduced tumor initiation and growth | Proliferation / cytotoxicity, melanoma cells (B16-F10 and Ret cells [1]): strongly inhibited | Inhibitory effect on Id3 protein expression (Id3): more potent | Inhibitory effect on Id3 protein expression (Id3; listed as X 6632): strongest inhibitory activities | Sprouting from HUVEC spheroids (HUVEC spheroids): substantially inhibited | 3D assays could not be performed with daily application, reason (B16-F10 and Ret cells [2]): cytotoxicity | Sprouting from LEC spheroids (LEC spheroids): substantially inhibited

Source: patent publication US20220259172A1, “CHEMICAL INHIBITORS OF ID PROTEINS FOR THE TREATMENT OF CANCER AND OTHER DISEASES” (Universität Heidelberg, priority 2019, published 2022)
